Results: patent US9045493B2, “Furo[3,2-b]- and thieno[3,2-b]pyridin derivatives” (Merck Patent GmbH, priority 2012, dated 2015)

How the values were obtained:
[1] = target: T1, TANK binding kinase (TBK1) (Homo sapiens, UniProt Q9UHD2); assay: TBK1 enzyme assay (384-well Flashplate kinase assay); format: biochemical; conditions: 10 μM ATP, 120 Min at 30° C.
T1 sequence (Q9UHD2 1-729): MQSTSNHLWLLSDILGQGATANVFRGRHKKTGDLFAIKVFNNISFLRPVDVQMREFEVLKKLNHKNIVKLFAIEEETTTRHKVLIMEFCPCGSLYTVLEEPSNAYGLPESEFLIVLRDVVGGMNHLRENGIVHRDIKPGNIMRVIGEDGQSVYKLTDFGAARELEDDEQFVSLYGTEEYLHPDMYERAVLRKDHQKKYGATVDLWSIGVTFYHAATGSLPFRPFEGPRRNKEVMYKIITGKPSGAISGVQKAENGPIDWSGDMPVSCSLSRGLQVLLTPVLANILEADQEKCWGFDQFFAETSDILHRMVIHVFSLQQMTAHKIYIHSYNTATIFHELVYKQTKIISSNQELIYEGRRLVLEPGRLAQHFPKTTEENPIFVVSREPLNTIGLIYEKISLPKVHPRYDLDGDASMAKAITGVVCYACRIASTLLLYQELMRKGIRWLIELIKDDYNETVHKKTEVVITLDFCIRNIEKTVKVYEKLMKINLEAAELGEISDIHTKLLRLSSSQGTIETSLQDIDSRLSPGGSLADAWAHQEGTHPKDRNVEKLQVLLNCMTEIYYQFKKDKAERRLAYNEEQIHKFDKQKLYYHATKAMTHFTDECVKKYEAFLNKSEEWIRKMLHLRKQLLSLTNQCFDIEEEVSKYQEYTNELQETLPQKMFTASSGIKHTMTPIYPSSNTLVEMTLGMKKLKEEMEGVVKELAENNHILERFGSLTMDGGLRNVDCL
Procedure: The kinase assay is performed as 384-well Flashplate assay (for e.g. Topcount measurement.
0.6 nM TANK binding kinase (TBK1), 800 nM biotinylated MELK-derived peptide (Biotin-Ah-Ah-[…]) and 10 μM ATP (spiked with 0.25 μCi ^33P-ATP/well) are incubated in a total volume of 50 μl (10 mM MOPS, 10 mM Mg-acetat, 0.1 mM EGTA, 1 mM DTT, 0.02% Brij35, 0.1% BSA, pH 7.5) with or without test compound for 120 Min at 30° C. The reaction is stopped with 25 μl 200 mM EDTA. After 30 Min at room temperature the liquid is removed and each well washed thrice with 100 μl 0.9% sodium chloride solution. Nonspecific reaction is determined in presence of 100 nM Staurosporine. Radioactivity is measured in a Topcount (PerkinElmer). Results (e.g. IC50-values) are calculated with program tools provided by the IT-department (e.g. AssayExplorer, Symyx).

IKKε = target: T2, IKKε (Homo sapiens, UniProt Q14164); assay: IKKε kinase assay (384-well Flashplate); format: biochemical; conditions: 10 μM ATP, 2 hours at 30° C.; read-out: IKKε enzyme assay IC50
T2 sequence (Q14164 1-716): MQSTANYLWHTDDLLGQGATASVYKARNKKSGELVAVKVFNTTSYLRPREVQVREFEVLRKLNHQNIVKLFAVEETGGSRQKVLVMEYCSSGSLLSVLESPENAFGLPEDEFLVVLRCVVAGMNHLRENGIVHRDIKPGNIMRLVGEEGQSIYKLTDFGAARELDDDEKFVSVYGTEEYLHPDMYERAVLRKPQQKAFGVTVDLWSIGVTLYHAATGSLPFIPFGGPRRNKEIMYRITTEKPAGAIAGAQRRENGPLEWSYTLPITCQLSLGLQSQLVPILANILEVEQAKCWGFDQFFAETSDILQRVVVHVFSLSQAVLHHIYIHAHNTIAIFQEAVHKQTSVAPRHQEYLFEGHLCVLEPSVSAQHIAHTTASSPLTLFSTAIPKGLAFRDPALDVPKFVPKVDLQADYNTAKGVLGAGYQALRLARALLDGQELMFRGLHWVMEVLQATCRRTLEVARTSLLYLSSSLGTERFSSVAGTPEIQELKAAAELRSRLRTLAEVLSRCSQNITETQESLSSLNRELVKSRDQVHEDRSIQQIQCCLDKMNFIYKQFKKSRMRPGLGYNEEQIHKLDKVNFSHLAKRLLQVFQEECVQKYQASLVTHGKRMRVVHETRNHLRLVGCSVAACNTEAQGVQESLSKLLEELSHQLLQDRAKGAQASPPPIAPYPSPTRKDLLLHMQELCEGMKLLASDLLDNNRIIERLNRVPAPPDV
Procedure: The kinase assay is performed either as 384-well Flashplate assay (for e.g. Topcount measurement).
1 nM IKKε, 800 nM biotinylated IκBα(19-42) peptide (Biotin-C6-C6-[…]) and 10 μM ATP (spiked with 0.3 μCi ^33P-ATP/well) are incubated in a total volume of 50 μl (10 mM MOPS, 10 mM Mg-acetat, 0.1 mM EGTA, 1 mM Dithiothreitol, 0.02% Brij35, 0.1% BSA, 0.1% BioStab, pH 7.5) with or without test compound for 2 hours at 30° C. The reaction is stopped with 25 μl 200 mM EDTA. After 30 Min at room temperature the liquid is removed and each well washed thrice with 100 μl 0.9% sodium chloride solution. […] Radioactivity is measured with Topcount (PerkinElmer). Results (e.g. IC50-values) are calculated with program tools provided by the IT-department (e.g. AssayExplorer, Symyx).

| SMILES | IC50 [1] [nM] | IC50 (IKKε) [nM] |
| --- | --- | --- |
| N#Cc1cc(-c2ccnc3cc(-c4ccc(N5CCOCC5)cc4)oc23)ccc1OC1CCOCC1 [Compound A1, 5-[2-(4-Morpholin-4-yl-phenyl)-furo[3,2-b]pyridin-7-yl]-2-(tetrahydro-pyran-4-yloxy)-benzonitrile] | 3000 to 50000 | 3000 to 50000 |
| N#Cc1cc(-c2ccnc3cc(-c4cccc(N5CCOCC5)c4)oc23)ccc1OC1CCOCC1 [Compound A2, 5-[2-(3-Morpholin-4-yl-phenyl)-furo[3,2-b]pyridin-7-yl]-2-(tetrahydro-pyran-4-yloxy)-benzonitrile] | < 300 | < 300 |
| CCN(CCOC)C(=O)c1ccc(-c2cc3nccc(-c4ccc(OC5CCOCC5)c(C#N)c4)c3o2)cc1 [Compound A3, 4-{7-[3-cyano-4-(tetrahydro-pyran-4-yloxy)-phenyl]-furo[3,2-b]pyridin-2-yl}-N-ethyl-N-(2-methoxy-ethyl)-benzamide] | < 300 | < 300 |
| CCOC(=O)c1ccc(-c2cc3nccc(-c4ccc(OC5CCOCC5)c(C#N)c4)c3o2)cc1 [Compound A4, 4-{7-[3-cyano-4-(tetrahydro-pyran-4-yloxy)-phenyl]-furo[3,2-b]pyridin-2-yl}-benzoic acid ethyl ester] | 300 to 3000 | 300 to 3000 |
| COc1ccccc1-c1cc2nccc(-c3ccc(OC4CCOCC4)c(C#N)c3)c2o1 [Compound A5, 5-[2-(2-methoxy-phenyl)-furo[3,2-b]pyridin-7-yl]-2-(tetrahydro-pyran-4-yloxy)-benzonitrile] | < 300 | < 300 |
| COc1cccc(-c2cc3nccc(-c4ccc(OC5CCOCC5)c(C#N)c4)c3o2)c1 [Compound A6, 5-[2-(3-methoxy-phenyl)-furo[3,2-b]pyridin-7-yl]-2-(tetrahydro-pyran-4-yloxy)-benzonitrile] | 300 to 3000 | 300 to 3000 |
| COc1ccc(-c2cc3nccc(-c4ccc(OC5CCOCC5)c(C#N)c4)c3o2)cc1 [Compound A7, 5-[2-(4-methoxy-phenyl)-furo[3,2-b]pyridin-7-yl]-2-(tetrahydro-pyran-4-yloxy)-benzonitrile] | 300 to 3000 | 300 to 3000 |
| COCCn1cc(-c2cc3nccc(-c4ccc(OC5CCOCC5)c(C#N)c4)c3o2)cn1 [Compound A8, 5-{2-[1-(2-methoxy-ethyl)-1H-pyrazol-4-yl]-furo[3,2-b]pyridin-7-yl}-2-(tetrahydro-pyran-4-yloxy)-benzonitrile] | 3000 to 50000 | 300 to 3000 |
| CN1CCN(c2cccc(-c3cc4nccc(-c5ccc(OC6CCOCC6)c(C#N)c5)c4o3)c2)CC1 [Compound A9, 5-{2-[3-(4-methyl-piperazin-1-yl)-phenyl]-furo[3,2-b]pyridin-7-yl}-2-(tetrahydro-pyran-4-yloxy)-benzonitrile] | < 300 | < 300 |
| CN1CCN(c2ccc(-c3cc4nccc(-c5ccc(OC6CCOCC6)c(C#N)c5)c4o3)cc2)CC1 [Compound A10, 5-{2-[4-(4-methyl-piperazin-1-yl)-phenyl]-furo[3,2-b]pyridin-7-yl}-2-(tetrahydro-pyran-4-yloxy)-benzonitrile] | < 300 | < 300 |
| N#Cc1cc(-c2ccnc3cc(-c4cccc5[nH]cnc45)oc23)ccc1OC1CCOCC1 [Compound A13, 5-[2-(1H-benzoimidazol-4-yl)-furo[3,2-b]pyridin-7-yl]-2-(tetrahydro-pyran-4-yloxy)-benzonitrile] | 300 to 3000 | 300 to 3000 |
| N#Cc1cc(-c2ccnc3cc(-c4ccc5[nH]c(=O)[nH]c5c4)oc23)ccc1OC1CCOCC1 [Compound A14, 5-[2-(2-oxo-2,3-dihydro-1H-benzoimidazol-5-yl)-furo[3,2-b]pyridin-7-yl]-2-(tetrahydro-pyran-4-yloxy)-benzonitrile] | 3000 to 50000 | 3000 to 50000 |
| CNCCNC(=O)c1ccc(-c2cc3nccc(-c4ccc(OC5CCOCC5)c(C#N)c4)c3o2)cc1 [Compound A15, 4-{7-[3-cyano-4-(tetrahydro-pyran-4-yloxy)-phenyl]-furo[3,2-b]pyridin-2-yl}-N-(2-methylamino-ethyl)-benzamide] | 300 to 3000 | < 300 |
| N#Cc1cc(-c2ccnc3cc(-c4ccc(C(=O)O)cc4)oc23)ccc1OC1CCOCC1 [Compound A16a, 4-{7-[3-Cyano-4-(tetrahydro-pyran-4-yloxy)-phenyl]-furo[3,2-b]pyridin-2-yl}-benzoic acid] | 300 to 3000 | 300 to 3000 |
| CN1CCN(C(=O)c2ccc(-c3cc4nccc(-c5ccc(OC6CCOCC6)c(C#N)c5)c4o3)cc2)CC1 [Compound A17, 5-{2-[4-(4-Methyl-piperazine-1-carbonyl)-phenyl]-furo[3,2-b]pyridin-7-yl}-2-(tetrahydro-pyran-4-yloxy)-benzonitrile] | < 300 | < 300 |
| N#Cc1cc(-c2ccnc3cc(-c4ccc(C(N)=O)cc4)oc23)ccc1OC1CCOCC1 [Compound A18, 4-{7-[3-cyano-4-(tetrahydro-pyran-4-yloxy)-phenyl]-furo[3,2-b]pyridin-2-yl}-benzamide] | 3000 to 50000 | 3000 to 50000 |
| CNC(=O)c1ccc(-c2cc3nccc(-c4ccc(OC5CCOCC5)c(C#N)c4)c3o2)cc1 [Compound A19, 4-{7-[3-cyano-4-(tetrahydro-pyran-4-yloxy)-phenyl]-furo[3,2-b]pyridin-2-yl}-N-methyl-benzamide] | 300 to 3000 | 300 to 3000 |
| CCNC(=O)c1ccc(-c2cc3nccc(-c4ccc(OC5CCOCC5)c(C#N)c4)c3o2)cc1 [Compound A20, 4-{7-[3-cyano-4-(tetrahydro-pyran-4-yloxy)-phenyl]-furo[3,2-b]pyridin-2-yl}-N-ethyl-benzamide] | 300 to 3000 | 300 to 3000 |
| CC(C)(C)OCCNC(=O)c1ccc(-c2cc3nccc(-c4ccc(OC5CCOCC5)c(C#N)c4)c3o2)cc1 [Compound A21, N-(2-tert-butoxy-ethyl)-4-{7-[3-cyano-4-(tetrahydro-pyran-4-yloxy)-phenyl]-furo[3,2-b]pyridin-2-yl}-benzamide] | 300 to 3000 | 300 to 3000 |
| COCCNC(=O)c1ccc(-c2cc3nccc(-c4ccc(OC5CCOCC5)c(C#N)c4)c3o2)cc1 [Compound A22, 4-{7-[3-cyano-4-(tetrahydro-pyran-4-yloxy)-phenyl]-furo[3,2-b]pyridin-2-yl}-N-(2-methoxy-ethyl)-benzamide] | 300 to 3000 | 300 to 3000 |
| CN(C)C(=O)c1ccc(-c2cc3nccc(-c4ccc(OC5CCOCC5)c(C#N)c4)c3o2)cc1 [Compound A23, 4-{7-[3-cyano-4-(tetrahydro-pyran-4-yloxy)-phenyl]-furo[3,2-b]pyridin-2-yl}-N,N-dimethyl-benzamide] | < 300 | < 300 |
